Assay results from patent US7728146B2, “Enzyme inhibitors” (Probiodrug AG, priority 2006, dated 2010).
Entries after “also recorded” stand apart in the source; their conditions may differ. Read-outs that look alike come from different tables or passages of the source.

Tests used:
[1] = tested on: liver cell carcinoma cell line Hep-G2; assay: Cytotoxicity screening and LD50 determination on Hep-G2 (LDH, CytoTox-One); format: cell-based; settings: 100 μM, Hep-G2
Protocol: Cytotoxicity of the compounds may be screened using the liver cell carcinoma cell line Hep-G2.
After 24 h of cultivation in a 96 well plate (50 000 cells/well) compounds (dissolved in DMSO) are added and cytotoxicity and vitality of the cells are analysed after another 24 h of cultivation using the CytoTox-One Homogenoeous membrane toxicity assay (Promega).
Three concentrations (100 μM, 2 μM, 40 nM) of each compound are analysed in triplicates. The final DMSO concentration was 1%.
For cytotoxicity the LDH activity in the cell culture media after 24 h of incubation are analysed. The untreated control is set to 0% cytotoxicity. For the 100% value LDH activity of lysed untreated cells are analysed.
For viability cell culture media are removed from the cells and all cells are lysed using the lysis buffer. LDH activity is determined and untreated control is set to 100% viability.
For determination of LD50 the liver carcinoma cell line HEP-G2 and the neuroblastoma cell line SY5Y may be used. The effect of 8 serial dilutions of the compounds (highest concentration 1 mM) is investigated as described above.
The cytotoxicity of certain example compounds (in each case prepared by preparative synthesis) was screened using Hep-G2 cells. Compounds were tested in concentrations of 100 μM, 2 μM and 40 nM.

DP IV = DP IV (Homo sapiens, UniProt P27487); assay: DP IV inhibition IC50, parallel-synthesis compounds tested directly following synthesis (without purification); format: biochemical; set-up: IC50 DP4; other: tested directly following parallel synthesis, without purification; compounds of formula (Ib) from parallel synthesis, tested directly following synthesis
In short: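 Porcine kidney or recombinant human enzyme (~40-50 μU/ml, HEPES buffer) hydrolysing Gly-Pro-pNA at room temperature, with 5% DMSO final; 11-point 1:2 dilutions from 100 μM final, in duplicate. pNA release read at 405 nm over ~18 min; slopes vs solvent control give residual activity, and IC50 comes from a 4-parameter fit.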

[2] = DP IV inhibition, compounds of formula (Ib) from parallel synthesis, tested directly following synthesis (without purification), read-out: IC50
[3] = tested directly following parallel synthesis, without purification, read-out: IC50 DP4

IC50 (DP IV; [2]) | IC50 (DP IV; [3]) | SMILES | cytotoxic effects (summary in words) [1]
 | 1.9 µM | NCc1c(-c2ccc(Cl)cc2Cl)ncn1Cc1ccc(Cl)c(Cl)c1 [Example 58a, C-[3-(3,4-Dichloro-benzyl)-5-(2,4-dichloro-phenyl)-3H-imid-azol-4-yl]-methyl-amine] | 
35.2 µM |  | NCc1c(-c2ccc(Cl)cc2Cl)ncn1Cc1ccc(Cl)cc1Cl [93b, C-[3-(2,4-Dichloro-benzyl)-5-(2,4-dichloro-phenyl)-3H-imidazol-4-yl]-methylamine] | 
14.5 µM |  | NCCCc1c(-c2ccc(Cl)cc2Cl)ncn1CCc1ccccc1Cl [90b, 3-[3-[2-(2-Chloro-phenyl)-ethyl]-5-(2,4-dichloro-phenyl)-3H-imidazol-4-yl]-propylamine] | 
2.8 µM |  | NCc1c(-c2ccc(Cl)cc2Cl)ncn1Cc1cccc(Cl)c1Cl [46b, C-[3-(2,3-Dichloro-benzyl)-5-(2,4-dichloro-phenyl)-3H-imidazol-4-yl]-methylamine] | 
 | 16.3 µM | NCc1c(-c2ccc(F)cc2Cl)ncn1Cc1ccco1 [Example 2a, C-[5-(2-Chloro-4-fluoro-phenyl)-3-furan-2-yl-methyl-3H-imid-azol-4-yl]-methyl-amine] | 
 | 24.4 µM | COc1cccc(Cn2cnc(-c3ccc(F)cc3F)c2CN)c1 [Example 77a, C-[5-(2,4-Difluoro-phenyl)-3-(3-methoxy-benzyl)-3H-imid-azol-4-yl]-methyl-amine] | 
 | 19.9 µM | Cc1ccccc1Cn1cnc(-c2ccc(F)cc2Cl)c1CN [Example 14a, C-[5-(2-Chloro-4-fluoro-phenyl)-3-(2-methyl-benzyl)-3H-imid-azol-4-yl]-methyl-amine] | 
 | 40.6 µM | NCc1c(-c2ccc(F)cc2F)ncn1Cc1ccc(F)cc1F [Example 76a, C-[3-(2,4-Difluoro-benzyl)-5-(2,4-difluoro-phenyl)-3H-imid-azol-4-yl]-methyl-amine] | 
16.3 µM |  | NCCc1c(-c2ccc(Cl)cc2Cl)ncn1CCNc1ccc([N+](=O)[O-])cn1 [79b, {2-[5-(2-Amino-ethyl)-4-(2,4-dichloro-phenyl)-imidazol-1-yl]-ethyl}-(5-nitro-pyridin-2-yl)-amine] | 
 | 29.8 µM | NCc1c(-c2ccc(F)cc2F)ncn1Cc1ccccn1 [Example 88a, C-[5-(2,4-Difluoro-phenyl)-3-pyri-din-2-yl-methyl-3H-imid-azol-4-yl]-methyl-amine] | 
26.2 µM |  | CC(N)c1c(-c2ccc(Cl)cc2Cl)ncn1Cc1ccc(F)c(F)c1 (centres unmarked) [68b, 1-[5-(2,4-Dichloro-phenyl)-3-(3,4-difluoro-benzyl)-3H-imidazol-4-yl]-ethylamine] | 
28.9 µM |  | CC(N)c1c(-c2ccc(Cl)cc2Cl)ncn1CCc1cccc(Cl)c1 (centres unmarked) [64b, 1-[3-[2-(3-Chloro-phenyl)-ethyl]-5-(2,4-dichloro-phenyl)-3H-imidazol-4-yl]-ethylamine] | 
 | 43.3 µM | Cc1ccc(Cn2cnc(-c3ccc(F)cc3Cl)c2CN)cc1 [Example 24a, C-[5-(2-Chloro-4-fluoro-phenyl)-3-(4-methyl-benzyl)-3H-imid-dazol-4-yl]-methyl-amine] | 
8.2 µM |  | NCc1c(-c2ccc(Cl)cc2Cl)ncn1Cc1ccncc1 [94b, C-[5-(2,4-Dichloro-phenyl)-3-pyridin-4-ylmethyl-3H-imidazol-4-yl]-methylamine] | 
10 µM |  | COc1cccc(Cn2cnc(-c3ccc(Cl)cc3Cl)c2C(C)N)c1 (centres unmarked) [76b, 1-[5-(2,4-Dichloro-phenyl)-3-(3-methoxy-benzyl)-3H-imidazol-4-yl]-ethylamine] | 
 | 19.9 µM | NCc1c(-c2ccc(F)cc2F)ncn1Cc1ccccc1 [Example 80a, C-[3-Benzyl-5-(2,4-di-fluoro-phenyl)-3H-imid-azol-4-yl]-methyl-amine] | 
44.2 µM |  | C[C@H](N)c1c(-c2ccc(Cl)cc2Cl)ncn1CCc1c[nH]c2ccccc12 [103b, (S)-1-{5-(2,4-Dichloro-phenyl)-3-[2-(1H-indol-3-yl)-ethyl]-3H-imidazol-4-yl}-ethylamine] | 
 | 0.1 µM | NCc1c(-c2ccc(Cl)cc2Cl)ncn1Cc1ccc(F)c(F)c1 [Example 49a, C-[5-(2,4-Dichloro-phenyl)-3-(3,4-difluoro-benzyl)-3H-imid-azol-4-yl]-methyl-amine] | 
2.8 µM |  | NCc1c(-c2ccc(Cl)cc2Cl)ncn1Cc1ccc(OC(F)(F)F)cc1 [97b, C-[5-(2,4-Dichloro-phenyl)-3-(4-trifluoromethoxy-benzyl)-3H-imidazol-4-yl]-methylamine] | 
 | 9.1 µM | NCc1c(-c2ccc(F)cc2F)ncn1Cc1ccccc1OC(F)(F)F [Example 84a, C-[5-(2,4-Difluoro-phenyl)-3-(2-trifluoromethoxy-benzyl)-3H-imidazol-4-yl]-methylamine] | 

SMILES | IC50 (DP IV; [2]) | IC50 (DP IV; [3]) | cytotoxic effects (summary in words) [1]
Cc1ccccc1Cn1cnc(-c2ccc(Cl)cc2Cl)c1C(C)N (centres unmarked) [Example 15b, 1-[5-(2,4-Dichloro-phenyl)-3-(2-methyl-benzyl)-3H-imidazol-4-yl]-ethylamine] | 19 µM |  | No cytotoxic effects
NCc1c(-c2ccc(Cl)cc2Cl)ncn1CC12CC3CC(CC(C3)C1)C2 [Example 14b, C-[3-Adamantan-1-ylmethyl-5-(2,4-dichloro-phenyl)-3H-imidazol-4-yl]-methylamine] | 19 µM |  | No cytotoxic effects
CC(C)CCn1cnc(-c2ccc(Cl)cc2Cl)c1CN [Example 7b, C-[5-(2,4-Dichloro-phenyl)-3-(3-methyl-butyl)-3H-imidazol-4-yl]-methylamine] | 8.2 µM |  | Strong cytotoxic effects; also recorded: strongest cytotoxicity
CC(N)c1c(-c2ccc(Cl)cc2Cl)ncn1CCc1ccccc1 (centres unmarked) [Example 2b, 1-[5-(2,4-Dichloro-phenyl)-3-phenethyl-3H-imidazol-4-yl]-ethylamine] | 32.5 µM |  | No cytotoxic effects
CCCCCn1cnc(-c2ccc(Cl)cc2Cl)c1CN [Example 12b, C-[5-(2,4-Dichloro-phenyl)-3-pentyl-3H-imidazol-4-yl]-methylamine] | 6.4 µM |  | No cytotoxic effects
COc1ccc(Cn2cnc(-c3ccc(Cl)cc3Cl)c2CN)c(OC)c1 [Example 8b, C-[5-(2,4-Dichloro-phenyl)-3-(2,4-dimethoxy-benzyl)-3H-imidazol-4-yl]-methylamine] | 12.7 µM |  | No cytotoxic effects
NCc1c(-c2ccc(Cl)cc2Cl)ncn1CCc1c[nH]c2ccccc12 [Example 1b, C-{5-(2,4-Dichloro-phenyl)-3-[2-(1H-indol-3-yl)-ethyl]-3H-imidazol-4-yl}-methylamine] | 3.7 µM |  | Strong cytotoxic effects
NCc1c(-c2ccc(Cl)cc2Cl)ncn1Cc1ccccc1 [Example 47a, C-[3-Ben-zyl-5-(2,4-dichloro-phenyl)-3H-imid-azol-4-yl]-methyl-amine] |  | 0.1 µM | 
